Where two headings read alike, the source gives them in different places.
Molecular target: SARS-CoV-2 Mpro (Severe acute respiratory syndrome coronavirus 2, UniProt P0DTD1)
Experiment: SARS-CoV-2 Mpro enzymatic inhibition assay (fluorescence)
Assay type: biochemical
Protocol: The hCoV Mpro are cloned, expressed in E. coli and purified by WuXi AppTec Co., Ltd. The substrate are synthesized by Genscript Biotech.
Compounds are 3 fold serially diluted for 10 doses and added to an assay plate (384w format) using ECHO, in duplicate wells. The test concentration of test compounds is defined by sponsor.
25 μL of Mpro proteins are added to the assay plates containing compounds, respectively, using Multidrop. The compounds and Mpro proteins are pre-incubated at room temperature for 30 min. Then 5 µL of Mpro substrates are added to the related assay plates, respectively.
After 60 min incubation at 30° C., the fluorescence signal (RFU) is detected using a microplate reader M2e (SpectraMax) at Ex/Em=340 nm/490 nm.
The inhibition activity is calculated using the formula below, IC50 values will be calculated using the Inhibition % data.
IC50 values of compounds are calculated with the GraphPad Prism software using the nonlinear regression model of log(inhibitor) vs. response—Variable slope (four parameters).

Row | Structure (SMILES) | IC50 [nM] | IC50 (mean, 25 nM protein, 25 μM substrate, 30 min pre-incubation, 60 min at 30° C., read-out: Mpro_SARS-CoV-2 mean IC50) [nM]
1 | CC1(C)[C@@H]2[C@@H](C(=O)N[C@H](C=O)C[C@@H]3CCNC3=O)N(C(=O)c3cc4c(C5CC5)cccc4[nH]3)C[C@@H]21 [Compound 41, (1R,2S,5S)-3-(4-Cyclopropyl-1H-indole-2-carbonyl)-6,6-dimethyl-N—((S)-1-oxo-3-((S)-2-oxopyrrolidin-3-yl)propan-2-yl)-3-azabicyclo[3.1.0]hexane-2-carboxamide] | 21.8 | 
2 | CC1(C)[C@@H]2[C@@H](C(=O)N[C@H](C=O)C[C@@H]3CCNC3=O)N(C(=O)c3cc4ccc(Cl)cc4[nH]3)C[C@@H]21 [Compound 42, (1R,2S,5S)-3-(6-Chloro-1H-indole-2-carbonyl)-6,6-dimethyl-N—((S)-1-oxo-3-((S)-2-oxopyrrolidin-3-yl)propan-2-yl)-3-azabicyclo[3.1.0]hexane-2-carboxamide] | 22.1 | 
3 | CC1(C)[C@@H]2[C@@H](C(=O)N[C@H](C=O)C[C@@H]3CCNC3=O)N(C(=O)c3cc4cc(Cl)cc(Cl)c4[nH]3)C[C@@H]21 [Compound 44, (1R,2S,5S)-3-(5,7-Dichloro-1H-indole-2-carbonyl)-6,6-dimethyl-N—((S)-1-oxo-3-((S)-2-oxopyrrolidin-3-yl)propan-2-yl)-3-azabicyclo[3.1.0]hexane-2-carboxamide] | 22.2 | 
4 | CC1(C)[C@@H]2[C@@H](C(=O)N[C@@H](C[C@@H]3CCNC3=O)C(=O)C(=O)NC3CC3)N(C(=O)C3(c4cccc(Cl)c4)CC3)C[C@@H]21 [Compound 45, (1R,2S,5S)-3-(1-(3-Chlorophenyl)cyclopropanecarbonyl)-N—((S)-4-(cyclopropylamino)-3,4-dioxo-1-((S)-2-oxopyrrolidin-3-yl)butan-2-yl)-6,6-dimethyl-3-azabicyclo[3.1.0]hexane-2-carboxamide] | 22.5 | 
5 | N#Cc1cccc2cc(C(=O)N3CC4(CC4)C[C@H]3C(=O)N[C@H](C=O)C[C@@H]3CCNC3=O)[nH]c12 [Compound 46, (S)-5-(7-cyano-1H-indole-2-carbonyl)-N—((S)-1-oxo-3-((S)-2-oxopyrrolidin-3-yl)propan-2-yl)-5-azaspiro[2.4]heptane-6-carboxamide] | 22.5 | 
6 | CC1(C)C[C@@H](C(=O)N[C@H](C=O)C[C@@H]2CCNC2=O)N(C(=O)c2cc3ccccc3[nH]2)C1 [Compound 57, (S)-1-(1H-Indole-2-carbonyl)-4,4-dimethyl-N—((S)-1-oxo-3-((S)-2-oxopyrrolidin-3-yl)propan-2-yl)pyrrolidine-2-carboxamid] |  | 25.8
7 | CC(C)Oc1cccc2[nH]c(C(=O)N3C[C@H]4[C@@H]([C@H]3C(=O)N[C@H](C=O)C[C@@H]3CCNC3=O)C4(C)C)cc12 [Compound 66, (1R,2S,5S)-3-(4-Isopropoxy-1H-indole-2-carbonyl)-6,6-dimethyl-N—((S)-1-oxo-3-((S)-2-oxopyrrolidin-3-yl)propan-2-yl)-3-azabicyclo[3.1.0]hexane-2-carboxamide] | 27.6 | 
8 | COc1ccc2[nH]c(C(=O)N3C[C@H]4[C@@H]([C@H]3C(=O)N[C@H](C=O)C[C@@H]3CCNC3=O)C4(C)C)cc2c1 [Compound 68, (1R,2S,5S)-3-(5-Methoxy-1H-indole-2-carbonyl)-6,6-dimethyl-N—((S)-1-oxo-3-((S)-2-oxopyrrolidin-3-yl)propan-2-yl)-3-azabicyclo[3.1.0]hexane-2-carboxamide] | 28 | 
9 | CCOc1cccc2[nH]c(C(=O)N3C[C@H]4[C@@H]([C@H]3C(=O)N[C@H](C=O)C[C@@H]3CCNC3=O)C4(C)C)cc12 [Compound 70, (1R,2S,5S)-3-(4-Ethoxy-1H-indole-2-carbonyl)-6,6-dimethyl-N—((S)-1-oxo-3-((S)-2-oxopyrrolidin-3-yl)propan-2-yl)-3-azabicyclo[3.1.0]hexane-2-carboxamide] | 30.1 | 
10 | O=C[C@H](C[C@@H]1CCNC1=O)NC(=O)[C@@H]1CC2(CC2)CN1C(=O)c1cc2cccc(F)c2[nH]1 [Compound 87, (S)-5-(7-Fluoro-1H-indole-2-carbonyl)-N—((S)-1-oxo-3-((S)-2-oxopyrrolidin-3-yl)propan-2-yl)-5-azaspiro[2.4]heptane-6-carboxamide] | 40.1 | 
11 | CC1(C)[C@@H]2[C@@H](C(=O)N[C@H](C=O)C[C@@H]3CCNC3=O)N(C(=O)c3cc4ccc(C(F)(F)F)cc4[nH]3)C[C@@H]21 [Compound 96] | 49.2 | 
12 | CC1(C)[C@@H]2[C@@H](C(=O)N[C@@H](C[C@@H]3CCNC3=O)C(=O)C(=O)NC3CC3)N(C(=O)C3(c4ccccc4)CCCC3)C[C@@H]21 [Compound 99, (1R,2S,5S)—N—((S)-4-(Cyclopropylamino)-3,4-dioxo-1-((S)-2-oxopyrrolidin-3-yl)butan-2-yl)-6,6-dimethyl-3-(1-phenylcyclopentanecarbonyl)-3-azabicyclo[3.1.0]hexane-2-carboxamide] | 51.4 | 
13 | COc1cc2[nH]c(C(=O)N3C[C@H]4[C@@H]([C@H]3C(=O)N[C@H](C=O)C[C@@H]3CCNC3=O)C4(C)C)cc2cc1F [Compound 101, (1R,2S,5S)-3-(5-Fluoro-6-methoxy-1H-indole-2-carbonyl)-6,6-dimethyl-N—((S)-1-oxo-3-((S)-2-oxopyrrolidin-3-yl)propan-2-yl)-3-azabicyclo[3.1.0]hexane-2-carboxamide] | 56.3 | 
14 | O=C[C@H](C[C@@H]1CCNC1=O)NC(=O)[C@@H]1C[C@H](C2CCCCC2)CN1C(=O)c1cc2ccccc2[nH]1 [Compound 103, (2S,4R)-4-cyclohexyl-1-(1H-Indole-2-carbonyl)-N—((S)-1-oxo-3-((S)-2-oxopyrrolidin-3-yl)propan-2-yl)pyrrolidine-2-carboxamide] | 63.9 | 
15 | CC1CCC(CC(=O)N2C[C@H]3[C@@H]([C@H]2C(=O)N[C@@H](C[C@@H]2CCNC2=O)C(=O)C(=O)NC2CC2)C3(C)C)CC1 (stereo partly drawn) [Compound 105, (1R,2S,5S)—N—((S)-4-(Cyclopropylamino)-3,4-dioxo-1-((S)-2-oxopyrrolidin-3-yl)butan-2-yl)-6,6-dimethyl-3-(2-(4-methylcyclohexyl)acetyl)-3-azabicyclo[3.1.0]hexane-2-carboxamide] | 73.2 | 
16 | CC(C)(C)[C@H](NC(=O)c1cc2ccccc2[nH]1)C(=O)N1C[C@H]2[C@@H]([C@H]1C(=O)N[C@@H](C[C@@H]1CCNC1=O)C(=O)C(N)=O)C2(C)C [Compound 116, N—((S)-1-((1R,2S,5S)-2-(((S)-4-amino-3,4-dioxo-1-((S)-2-oxopyrrolidin-3-yl)butan-2-yl)carbamoyl)-6,6-dimethyl-3-azabicyclo[3.1.0]hexan-3-yl)-3,3-dimethyl-1-oxobutan-2-yl)-1H-indole-2-carboxamide] | 118 | 
17 | CC1(C)[C@@H]2[C@@H](C(=O)N[C@H](C=O)C[C@@H]3CCNC3=O)N(C(=O)c3cc4c(F)c(Cl)ccc4[nH]3)C[C@@H]21 [Compound 117, (1R,2S,5S)-3-(5-Chloro-4-fluoro-1H-indole-2-carbonyl)-6,6-dimethyl-N—((S)-1-oxo-3-((S)-2-oxopyrrolidin-3-yl)propan-2-yl)-3-azabicyclo[3.1.0]hexane-2-carboxamide] | 126 | 
18 | CC1(C)[C@@H]2[C@@H](C(=O)N[C@@H](C[C@@H]3CCNC3=O)C(=O)C(=O)NC3CC3)N(C(=O)C3(c4ccccc4)CC3)C[C@@H]21 [Compound 119, (1R,2S,5S)—N—((S)-4-(cyclopropylamino)-3,4-dioxo-1-((S)-2-oxopyrrolidin-3-yl)butan-2-yl)-6,6-dimethyl-3-(1-phenylcyclopropanecarbonyl)-3-azabicyclo[3.1.0]hexane-2-carboxamide] | 143 | 
19 | O=C[C@H](C[C@@H]1CCNC1=O)NC(=O)[C@@H]1C[C@@H](Oc2ccccc2)CN1C(=O)c1cc2ccccc2[nH]1 [Compound 133, (2S,4R)-1-(1H-Indole-2-carbonyl)-N—((S)-1-oxo-3-((S)-2-oxopyrrolidin-3-yl)propan-2-yl)-4-phenoxypyrrolidine-2-carboxamide] | 443 | 
20 | O=C[C@H](C[C@@H]1CCNC1=O)NC(=O)[C@@H]1C[C@H](Oc2ccccc2)CN1C(=O)c1cc2ccccc2[nH]1 [Compound 134, (2S,4S)-1-(1H-Indole-2-carbonyl)-N—((S)-1-oxo-3-((S)-2-oxopyrrolidin-3-yl)propan-2-yl)-4-phenoxypyrrolidine-2-carboxamide] | 451 | 
